Results as given in PMC5339874, “Fluorene-9-bisphenol is anti-oestrogenic and may cause adverse pregnancy outcomes in mice” (Nature Communications, 2017).

Assays:
CD-1 mice [1] = experiment: Global gene expression microarray of livers, ovaries and uteri; format: in vivo
Experimental: (§1) The uteri, ovaries and livers were collected for total RNA isolation. Total RNA was isolated using Trizol reagent (Invitrogen) and further purified by NucleoSpin RNA Clean-up (Macherey-Nagel, Germany). Fluorescence labelling of the RNA samples was performed with a Jingxin cRNA linear amplification and labelling kit (CapitalBio) according to the manufacturer's instructions. The total RNA from each pool of tissue samples (a mixture from three animals) was used for microarray analysis. Cy3 dCTP was used to label the samples. The labelled products were added to SurePrint G3 mouse gene expression 8 × 60 K microarrays (Agilent) and incubated overnight at 42 °C. Following hybridization, the gene arrays were washed and scanned using an Agilent G2565CA Microarray Scanner. Glyceraldehyde 3-phosphate dehydrogenase (GAPDH) was used as an endogenous control to monitor the quality of the target preparation. The data were processed with feature extraction software (GeneSpring GX v.11; Agilent). The raw signals were log-transformed and normalized with the percentile shift normalization method. All arrays met the minimum Agilent QA/QC standards. To verify the data from the gene array, 14 genes were chosen as candidates for Q-RT-PCR. Primers are listed in Supplementary Table 4. GAPDH was used as an endogenous control. Amplification was performed using SYBR Green PCR master mix (Applied Biosystems) according to the manufacturer's instructions. The relative expression was quantified using the 2^(−ΔΔCt) method. The Gene Ontology (GO) and KEGG pathway enrichment analyses were performed with DAVID (refs [40], [41]).

CD-1 mice [2] = experiment: Q-RT-PCR validation of the microarray; format: in vivo; details: 50 mg/kg bw/d BHPF, 3 days
Experimental: as §1

[3] = 50 mg/kg bw/d BHPF, 3 days, endogenous control
[4] = liver, 50 mg kg^−1 bw d^−1, 3 days
[5] = ovaries, 50 mg kg^−1 bw d^−1, 3 days
[6] = uteri, 50 mg kg^−1 bw d^−1, 3 days

Compound: Oc1ccc(C2(c3ccc(O)cc3)c3ccccc3-c3ccccc32)cc1 [BHPF, 9,9-bis(4-hydroxyphenyl)-fluorene]
- genes involved in biotransformation and oxidation-reduction processes (CD-1 mice [1]; 50 mg kg^−1 bw d^−1, 3 days): up-regulated in the uterus but not in the liver
- Actb gene expression change, liver, Microarray (CD-1 mice [1]; 50 mg/kg bw/d BHPF, 3 days): 1.09
- Actb gene expression change, ovary, Microarray (CD-1 mice [1]; 50 mg/kg bw/d BHPF, 3 days): 1.34
- Actb gene expression change, uterus, Microarray (CD-1 mice [1]; 50 mg/kg bw/d BHPF, 3 days): 1.07
- Cfd gene expression change, liver, Microarray (CD-1 mice [1]; 50 mg/kg bw/d BHPF, 3 days): -3.11
- Cfd gene expression change, ovary, Microarray (CD-1 mice [1]; 50 mg/kg bw/d BHPF, 3 days): 4.13
- Cfd gene expression change, uterus, Microarray (CD-1 mice [1]; 50 mg/kg bw/d BHPF, 3 days): -6.54
- Orm1 gene expression change, liver, Microarray (CD-1 mice [1]; 50 mg/kg bw/d BHPF, 3 days): -1.65
- Orm1 gene expression change, ovary, Microarray (CD-1 mice [1]; 50 mg/kg bw/d BHPF, 3 days): 1.18
- Orm1 gene expression change, uterus, Microarray (CD-1 mice [1]; 50 mg/kg bw/d BHPF, 3 days): 23.12
- Spp1 gene expression change, liver, Microarray (CD-1 mice [1]; 50 mg/kg bw/d BHPF, 3 days): -1.30
- Spp1 gene expression change, ovary, Microarray (CD-1 mice [1]; 50 mg/kg bw/d BHPF, 3 days): -1.67
- Spp1 gene expression change, uterus, Microarray (CD-1 mice [1]; 50 mg/kg bw/d BHPF, 3 days): 2.57
- Sprr1a gene expression change, liver, Microarray (CD-1 mice [1]; 50 mg/kg bw/d BHPF, 3 days): 2.17
- Sprr1a gene expression change, ovary, Microarray (CD-1 mice [1]; 50 mg/kg bw/d BHPF, 3 days): 1.17
- Sprr1a gene expression change, uterus, Microarray (CD-1 mice [1]; 50 mg/kg bw/d BHPF, 3 days): -3.44
- Sprr2a2 gene expression change, liver, Microarray (CD-1 mice [1]; 50 mg/kg bw/d BHPF, 3 days): 2.10
- Sprr2a2 gene expression change, ovary, Microarray (CD-1 mice [1]; 50 mg/kg bw/d BHPF, 3 days): -12.01
- Sprr2a2 gene expression change, uterus, Microarray (CD-1 mice [1]; 50 mg/kg bw/d BHPF, 3 days): -5.24
- Sprr2b gene expression change, liver, Microarray (CD-1 mice [1]; 50 mg/kg bw/d BHPF, 3 days): 2.75
- Sprr2b gene expression change, ovary, Microarray (CD-1 mice [1]; 50 mg/kg bw/d BHPF, 3 days): -2.07
- Sprr2b gene expression change, uterus, Microarray (CD-1 mice [1]; 50 mg/kg bw/d BHPF, 3 days): -13.20
- Sprr2f gene expression change, liver, Microarray (CD-1 mice [1]; 50 mg/kg bw/d BHPF, 3 days): 3.69
- Sprr2f gene expression change, ovary, Microarray (CD-1 mice [1]; 50 mg/kg bw/d BHPF, 3 days): -5.81
- Sprr2f gene expression change, uterus, Microarray (CD-1 mice [1]; 50 mg/kg bw/d BHPF, 3 days): -2.52
- Sprr2g gene expression change, liver, Microarray (CD-1 mice [1]; 50 mg/kg bw/d BHPF, 3 days): 2.09
- Sprr2g gene expression change, ovary, Microarray (CD-1 mice [1]; 50 mg/kg bw/d BHPF, 3 days): -5.71
- Sprr2g gene expression change, uterus, Microarray (CD-1 mice [1]; 50 mg/kg bw/d BHPF, 3 days): -2.13
- chil3 gene expression change, liver, Microarray (CD-1 mice [1]; 50 mg/kg bw/d BHPF, 3 days): -8.53
- chil3 gene expression change, ovary, Microarray (CD-1 mice [1]; 50 mg/kg bw/d BHPF, 3 days): -9.16
- chil3 gene expression change, uterus, Microarray (CD-1 mice [1]; 50 mg/kg bw/d BHPF, 3 days): -6.60
- cyp2e1 gene expression change, liver, Microarray (CD-1 mice [1]; 50 mg/kg bw/d BHPF, 3 days): -1.01
- cyp2e1 gene expression change, ovary, Microarray (CD-1 mice [1]; 50 mg/kg bw/d BHPF, 3 days): 1.25
- cyp2e1 gene expression change, uterus, Microarray (CD-1 mice [1]; 50 mg/kg bw/d BHPF, 3 days): 5.02
- ll1f6 gene expression change, liver, Microarray (CD-1 mice [1]; 50 mg/kg bw/d BHPF, 3 days): 1.95
- ll1f6 gene expression change, ovary, Microarray (CD-1 mice [1]; 50 mg/kg bw/d BHPF, 3 days): -1.11
- ll1f6 gene expression change, uterus, Microarray (CD-1 mice [1]; 50 mg/kg bw/d BHPF, 3 days): -10.96
- serp1d gene expression change, liver, Microarray (CD-1 mice [1]; 50 mg/kg bw/d BHPF, 3 days): 1.02
- serp1d gene expression change, ovary, Microarray (CD-1 mice [1]; 50 mg/kg bw/d BHPF, 3 days): 1.13
- serp1d gene expression change, uterus, Microarray (CD-1 mice [1]; 50 mg/kg bw/d BHPF, 3 days): 17.78
- GAPDH gene expression change, liver, Microarray (CD-1 mice [1]; [3]): 1.02
- GAPDH gene expression change, ovary, Microarray (CD-1 mice [1]; [3]): 1.03
- GAPDH gene expression change, uterus, Microarray (CD-1 mice [1]; [3]): -1.02
- share of modified genes down-regulated (CD-1 mice [1]; [4]): 22.3%
- share of modified genes up-regulated (CD-1 mice [1]; [4]): 77.7%
- expression of sprr2a, sprr2b, sprr2f and sprr2g (response to E2 stimuli) (CD-1 mice [1]; [5]): down-regulated
- share of modified genes down-regulated (CD-1 mice [1]; [5]): 65.5%
- share of modified genes up-regulated (CD-1 mice [1]; [5]): 34.5%
- expression pattern of oestrogen-responsive genes compared with that induced by E2 (CD-1 mice [1]; [6]): opposite expression pattern
- share of modified genes down-regulated (CD-1 mice [1]; [6]): 43.4%
- share of modified genes up-regulated (CD-1 mice [1]; [6]): 56.6%
- Actb gene expression change, liver, Q-RT-PCR (CD-1 mice [2]): 1.25
- Actb gene expression change, ovary, Q-RT-PCR (CD-1 mice [2]): 1.13
- Actb gene expression change, uterus, Q-RT-PCR (CD-1 mice [2]): 1.13
- Cfd gene expression change, liver, Q-RT-PCR (CD-1 mice [2]): -2.43
- Cfd gene expression change, ovary, Q-RT-PCR (CD-1 mice [2]): 2.28
- Cfd gene expression change, uterus, Q-RT-PCR (CD-1 mice [2]): -2.85
- Orm1 gene expression change, liver, Q-RT-PCR (CD-1 mice [2]): -1.41
- Orm1 gene expression change, ovary, Q-RT-PCR (CD-1 mice [2]): 2.19
- Orm1 gene expression change, uterus, Q-RT-PCR (CD-1 mice [2]): 5.17
- Spp1 gene expression change, liver, Q-RT-PCR (CD-1 mice [2]): -1.51
- Spp1 gene expression change, ovary, Q-RT-PCR (CD-1 mice [2]): -1.68
- Spp1 gene expression change, uterus, Q-RT-PCR (CD-1 mice [2]): 3.43
- Sprr1a gene expression change, liver, Q-RT-PCR (CD-1 mice [2]): 4.11
- Sprr1a gene expression change, ovary, Q-RT-PCR (CD-1 mice [2]): 1.16
- Sprr1a gene expression change, uterus, Q-RT-PCR (CD-1 mice [2]): -2.01
- Sprr2a2 gene expression change, liver, Q-RT-PCR (CD-1 mice [2]): 3.43
- Sprr2a2 gene expression change, ovary, Q-RT-PCR (CD-1 mice [2]): -8.94
- Sprr2a2 gene expression change, uterus, Q-RT-PCR (CD-1 mice [2]): -5.70
- Sprr2b gene expression change, liver, Q-RT-PCR (CD-1 mice [2]): 4.76
- Sprr2b gene expression change, ovary, Q-RT-PCR (CD-1 mice [2]): -9.65
- Sprr2b gene expression change, uterus, Q-RT-PCR (CD-1 mice [2]): -9.58
- Sprr2f gene expression change, liver, Q-RT-PCR (CD-1 mice [2]): 4.41
- Sprr2f gene expression change, ovary, Q-RT-PCR (CD-1 mice [2]): -5.28
- Sprr2f gene expression change, uterus, Q-RT-PCR (CD-1 mice [2]): -5.78
- Sprr2g gene expression change, liver, Q-RT-PCR (CD-1 mice [2]): 3.68
- Sprr2g gene expression change, ovary, Q-RT-PCR (CD-1 mice [2]): -5.70
- Sprr2g gene expression change, uterus, Q-RT-PCR (CD-1 mice [2]): -1.83
- chil3 gene expression change, liver, Q-RT-PCR (CD-1 mice [2]): -2.81
- chil3 gene expression change, ovary, Q-RT-PCR (CD-1 mice [2]): -3.92
- chil3 gene expression change, uterus, Q-RT-PCR (CD-1 mice [2]): -3.07
- cyp2e1 gene expression change, liver, Q-RT-PCR (CD-1 mice [2]): 4.06
- cyp2e1 gene expression change, ovary, Q-RT-PCR (CD-1 mice [2]): 1.69
- cyp2e1 gene expression change, uterus, Q-RT-PCR (CD-1 mice [2]): 4.00
- ll1f6 gene expression change, liver, Q-RT-PCR (CD-1 mice [2]): 2.66
- ll1f6 gene expression change, ovary, Q-RT-PCR (CD-1 mice [2]): -4.29
- ll1f6 gene expression change, uterus, Q-RT-PCR (CD-1 mice [2]): -4.66
- serp1d gene expression change, liver, Q-RT-PCR (CD-1 mice [2]): 2.48
- serp1d gene expression change, ovary, Q-RT-PCR (CD-1 mice [2]): 1.59
- serp1d gene expression change, uterus, Q-RT-PCR (CD-1 mice [2]): 30.91
- GAPDH gene expression change, liver, Q-RT-PCR (CD-1 mice [2]; endogenous control): 1.00
- GAPDH gene expression change, ovary, Q-RT-PCR (CD-1 mice [2]; endogenous control): 1.00
- GAPDH gene expression change, uterus, Q-RT-PCR (CD-1 mice [2]; endogenous control): 1.00
